The results in this text go back to patent US8093274B2, “Inhibitors of protein prenyltransferases” (The Regents of the University of California, priority 2006, dated 2012).

What all share (assay type): biochemical
Experiment [1] addresses GGTase I (Homo sapiens, UniProt P49354+P53609). The experiment can be described thus: GGTase I assay, substrate not specified or K-Ras4B and RhoA compared. The following applies: for GGTI activity in screen of 138 heterocycles: K-Ras4B or RhoA substrate, 30 min; for inhibition of GGTase I: FIG. 16; for substrate preference of GGTase I inhibition (RhoA vs K-Ras4B), known GGTIs: FIG. 17. The protocol:
(§1) The pilot library was screened for inhibitors of protein geranylgeranyltransferase type I. Protein prenyltransferase assays were carried out by using filter binding. Two different substrates, RhoA and K-Ras4B, were used for the assay. RhoA ends with the CaaL motif and is an exclusive substrate for GGTase I, while K-Ras4B ends with the CaaX motif and is modified by both GGTase I and FTase.
(§2) The % activity of GGTase I was determined as follows: a working solution that contained each compound in DMSO at the concentration of 1 mM was prepared. The working solution was added to GGTase I reaction mixture so that the final concentration of the compound is 50 μM. GGTase I activity was assayed by incubating [^3H]GGPP with K-Ras4B or RhoA protein in the presence of GGTase I and examining radioactivity incorporated into the substrate protein by spotting onto a filter paper. After washing with TCA, ethanol and acetone, the radioactivity retained on the filter was determined by the use of a scintillation counter. GGTase I activity in the presence of DMSO was taken as a 100% value and the activity in the presence of the compound was shown as percent activity compared with the 100% value. […] For 6-aryl-4-mercapto-N-sulfonyl-piperidine-3-carboxylic acid 11 the 4-mercapto substituent appeared critical to endowing GGTase inhibitory activity. […] 4-Chlorobenzylthio substituent was the next best; 12 compounds out of 21 containing the 4-chlorobenzylthio moiety were active. 4-Benzylthio substituent was also good; 7 piperidines out of 21 bearing 4-benzylthio group were active. […] 19 imines (C15>C12=C41>C40>C01=C11>C05=C10=C30=C35=C37=C38>C02, C03, C04, C06, C39=C43) out of 21 appeared in the GGTIs. […] This corresponds to 47 6-aryl-4-mercapto-N-sulfonyl-piperidine-3-carboxylic acids out of 357 compounds.
(§3) A collection of 138 heterocycles was screened for their ability to inhibit the activity of human GGTase-I to geranylgeranylate K-Ras4B or RhoA. Purified GGTase-1 was incubated with its substrate protein K-Ras4B or RhoA, [^3H]GGPP, and the 138 compounds. After 30 min, the degree of incorporation of tritiated geranylgeranyl groups was measured using a scintillation counter.

The target of experiment [2] is GGTase I (substrate RhoA) (Homo sapiens, UniProt P49354+P53609). The experiment can be described thus: GGTase I filter-binding assay with RhoA as substrate. To be noted: for activity at 50 µM: read-out: % activity of GGTase I for protein RhoA in the presence of the compound; for IC50: FIG. 15, read-out: IC50 for the inhibition of GGTase I using RhoA as a substrate. The protocol:
as §1, §2, §3
The GGTase-I assay was carried out using RhoA as a substrate protein, GGTase-I (JENA Bioscience) and [3H]geranylgeranyl pyrophosphate. Incubation was for 30 min at 37 C. GGTase-H (or RabGGTase) assay was carried out using YPT1 as a substrate protein, GGTase-H (Calbiochem, San Diego, Calif.) plus REP1 (Calbiochem) and [3H]geranylgeranyl pyrophosphate. Incubation was for 30 min at 37 C. FIGS. 20D-20F show the three dimensional structure of GGTase I (D), FTsse (E) and GGTase II (F) which can be obtained from X-ray diffraction studies of protein crystals.

Experiment [3] addresses GGTase I (substrate K-Ras4B) (Homo sapiens, UniProt P49354+P53609). Description: GGTase I filter-binding assay with K-Ras4B as substrate. To be noted: read-out: % activity of GGTase I for protein K-Ras4B in the presence of the compound. How it is done:
as §1, §2, §3

The target of experiment [4] is T1, protein farnesyltransferase (FTase) (Rattus norvegicus, UniProt Q02293+Q04631).
T1 construct: purchased JENA Bioscience
Description: Protein farnesyltransferase assay with K-Ras4B and [3H]FPP. To be noted: FIG. 16; concentration increased to 100 μM. The text has this: To further characterize the pilot library, inhibitors of protein farnesyltransferase were identified. This was accomplished by using K-Ras4B as a substrate protein, tritiated farnesylpyrophosphate ([^3H]FPP) and protein farnesyltransferase. See Finegold, A. A., Johnson, D. I., Farnsworth, C. C., Gelb, M. H., Judd, S. R., Glomset, J. A. and Tamanoi, F. (1991) Protein geranylgeranyltransferase of Saccharomyces cerevisiae is specific for Cys-Xaa-Xaa-Leu motif and requires the CDC43 gene product but not the DPRI gene product. Proc. Natl. Acad. Sci. USA 88, 4448-4452. […] On the other hand, the structure of the compounds P1-F11, P2-B7 and P2-E9 resemble those of GGTIs. The FTI P1-F11 resembles the GGTI P1-F10, while the FTI P2-B7 resembles the GGTI P2-C10. The FTI P2-E9 is similar to the GGTI P2-G3. Similarity of some GGTI and FTI compounds may point to common structural features between the two closely related enzymes. As described before, FTase and GGTase I have similar three-dimensional structures and a shared alpha subunit. On the other hand, FTase specific inhibitors may recognize a region(s) that is different between the two enzymes.
Varying concentrations of the two compounds were added to each enzyme reaction. The FTase (protein farnesyltransferase) assay was carried out using K-Ras4B as a substrate protein, FTase (JENA Bioscience, San Diego, Calif.) and […] pyrophosphate. Incubation was for 30 min at 37 C.

Setting [5] is: 50 μM compound, DMSO = 100%, smaller numbers indicate better inhibition, second number of pair.
Where [6] appears, read: 50 μM compound, DMSO = 100%, smaller numbers indicate better inhibition, first number of pair.

Like-named read-outs stand apart in the source and are kept apart here.

Consider `Cc1ccc(S(=O)(=O)N2[C@@H](c3ccccc3)C(C(=O)O)=CC[C@H]2c2ccc(F)cc2)cc1` [compound 2], for which, in experiment [1], the “GGTI activity in screen of 138 heterocycles” value is on record as “identified as GGTIs”.

For `CC[C@@H]1C=C(C(=O)O)[C@H](c2ccc(F)cc2)N1S(=O)(=O)c1ccc(C)cc1` [compound 1], in experiment [1], the “GGTI activity in screen of 138 heterocycles” value is recorded as “identified as GGTIs”.

As to `O=C(O)C1=CCC(c2ccc(Cl)cc2)N(S(=O)(=O)c2ccc(Cl)cc2)[C@H]1c1cccc(Cl)c1` (some centres unmarked) [P3-D9], the activity at 50 µM in experiment [2] (setting [5]) worked out at 26.7%; in experiment [3] (setting [6]), 33.1%. In experiment [2], the IC50 (usually the point on the concentration scale where inhibition reaches its midpoint) came out at 5000 nM. The “inhibition of FTase activity” value in experiment [4] is recorded as “no inhibition of FTase activity was observed”.

In the case of `COC(=O)[C@H](CC(C)C)NC(=O)c1ccc(NC[C@@H](N)CS)cc1-c1cccc2ccccc12` [GGTI-298, reference compound], the 50% inhibitory concentration (IC50) in experiment [2] came out at 1600 nM. In addition, in experiment [1], the “inhibition of GGTase I” value was “inhibits GGTase I” and the “substrate preference of GGTase I inhibition (RhoA vs K-Ras4B), known GGTIs” value was “inhibit RhoA-driven GGTase I activity slightly better than K-Ras4B-driven GGTase I activity”. The “inhibition of FTase activity” value in experiment [4] was “little inhibition was observed with FTase”.

Consider `COC(=O)C(CC(C)C)NC(=O)c1ccc(NCc2cnc[nH]2)cc1-c1ccccc1C` (centres unmarked) [GGTI-2166, reference compound], for which, in experiment [2], the IC50 was 500 nM. The “substrate preference of GGTase I inhibition (RhoA vs K-Ras4B), known GGTIs” value in experiment [1] is “inhibit RhoA-driven GGTase I activity slightly better than K-Ras4B-driven GGTase I activity”.

Turning to `C=CCS[C@H]1[C@@H](C(=O)O)[C@H](c2ccc(Cl)c(Cl)c2)N(S(=O)(=O)c2ccc(C)cc2)[C@@H]1CC1CCCC1`, the results for the activity at 50 µM in experiment [2] (setting [5]) and in experiment [3] (setting [6]) were 8.6% and 12.1%, respectively.

Take `Cc1ccc(S(=O)(=O)N2C(c3cccc(Br)c3)CC=C(C(=O)O)[C@@H]2c2cccc(Br)c2)cc1` (some centres unmarked): the activity at 50 µM in experiment [2] (setting [5]) turned out to be 3.7%; in experiment [3] (setting [6]), 9.4%.

`C=CCS[C@H]1[C@@H](C(=O)O)[C@H](c2ccc(C(C)C)cc2)N(S(=O)(=O)c2ccc(C)cc2)[C@@H]1CC1CCCC1`: the activity at 50 µM in experiment [2] (setting [5]) stood at 6.1%; in experiment [3] (setting [6]) it was 31.7%.

`Cc1ccccc1S(=O)(=O)N1C(c2ccc(Cl)cc2)CC=C(C(=O)O)[C@@H]1c1cccc(F)c1` (some centres unmarked): the values for the activity at 50 µM in experiment [2] (setting [5]) and in experiment [3] (setting [6]) were 3% and 5.4%, respectively.

As to `CCC[C@@H]1[C@@H](SCCC(=O)OC(C)(C)C)[C@@H](C(=O)O)[C@H](c2ccc(Cl)cc2)N1S(=O)(=O)c1ccc(Cl)cc1`, the activity at 50 µM came out at 9.2% in experiment [2] (setting [5]) and 21.7% in experiment [3] (setting [6]).

As to `Cc1ccc(S(=O)(=O)N2[C@H](CC3CCCC3)[C@@H](SCCC(=O)OC(C)(C)C)[C@@H](C(=O)O)[C@@H]2c2cccc(F)c2)cc1`, the activity at 50 µM is 8.2% in experiment [2] (setting [5]) and 31.9% in experiment [3] (setting [6]).

Take `C=CCS[C@H]1[C@@H](C(=O)O)[C@H](c2ccc(Cl)cc2)N(S(=O)(=O)c2ccc(C)cc2)[C@@H]1CC1CCCC1`: the activity at 50 µM in experiment [2] (setting [5]) was 7.7%; in experiment [3] (setting [6]), 25.2%.

Take `Cc1ccc(C2CC=C(C(=O)O)[C@H](c3cccc(Br)c3)N2S(=O)(=O)c2ccc(Cl)cc2)cc1` (some centres unmarked): the activity at 50 µM was determined as 7.4% in experiment [2] (setting [5]) and 8.4% in experiment [3] (setting [6]).

In the case of `CC[C@@H]1[C@@H](Sc2ccc(OC)cc2)[C@@H](C(=O)O)[C@H](c2cccc(Cl)c2)N1S(=O)(=O)c1ccc(C)cc1`, the results for the activity at 50 µM in experiment [2] (setting [5]) and in experiment [3] (setting [6]) were 6.5% and 25.5%, respectively.

For the compound `CCCC[C@@H]1[C@@H](Sc2ccc(C)cc2)[C@@H](C(=O)O)[C@H](c2cccc(F)c2)N1S(=O)(=O)c1ccc(C)cc1`, the activity at 50 µM in experiment [2] (setting [5]) stood at 7.1%; in experiment [3] (setting [6]) it was 31.5%.

In the case of `C=CCS[C@H]1[C@@H](C(=O)O)[C@H](c2ccc(Br)cc2)N(S(=O)(=O)c2ccc(C)cc2)[C@@H]1CCC`, the activity at 50 µM amounted to 7.5% in experiment [2] (setting [5]) and 9.8% in experiment [3] (setting [6]).

For `Cc1cccc([C@H]2C(C(=O)O)=CCC(c3ccc(Cl)cc3)N2S(=O)(=O)c2ccccc2C)c1` (some centres unmarked), the figures for the activity at 50 µM in experiment [2] (setting [5]) and in experiment [3] (setting [6]) were 12.4% and 15.6%, respectively.

With `Cc1ccc(S(=O)(=O)N2C(c3ccc(Cl)c(Cl)c3)CC=C(C(=O)O)[C@@H]2c2ccc(Cl)cc2)cc1` (some centres unmarked), the activity at 50 µM in experiment [2] (setting [5]) amounted to 12.1%; in experiment [3] (setting [6]), 17.7%.

As to `CCC[C@@H]1[C@@H](Sc2ccc(OC)cc2)[C@@H](C(=O)O)[C@H](c2ccc(Cl)c(Cl)c2)N1S(=O)(=O)c1ccc(C)cc1`, the activity at 50 µM in experiment [2] (setting [5]) turned out to be 1.1%; in experiment [3] (setting [6]), 10.9%.

Regarding `Cn1cncc1CN1C[C@@H](Cc2ccccc2)N(S(=O)(=O)c2cccs2)Cc2cc(C#N)ccc21` [BMS225975, reference compound], in experiment [1], the “inhibition of GGTase I” value is recorded as “does not inhibit GGTase I”. The “inhibition of FTase activity” value in experiment [4] is listed as “inhibits FTase”.

As to `Cc1ccc(S(=O)(=O)N2C(c3cccc(Br)c3)CC=C(C(=O)O)[C@@H]2c2ccccc2)cc1` (some centres unmarked), the activity at 50 µM in experiment [2] (setting [5]) came out at 19.4%; in experiment [3] (setting [6]), 35.2%.

As to `Cc1ccc(S(=O)(=O)N2C(c3cccc(Cl)c3)CC=C(C(=O)O)[C@@H]2c2cccc(Br)c2)cc1` (some centres unmarked), the activity at 50 µM came out at 7% in experiment [2] (setting [5]) and 11% in experiment [3] (setting [6]).

On to `CC(C)CCS[C@H]1[C@@H](C(=O)O)[C@H](c2ccc(Cl)cc2)N(S(=O)(=O)c2ccccc2)[C@@H]1C(C)C`, for which the activity at 50 µM was 5.9% in experiment [2] (setting [5]) and 28.1% in experiment [3] (setting [6]).

In the case of `Cc1ccccc1S(=O)(=O)N1C(c2ccc(Cl)cc2)CC=C(C(=O)O)[C@@H]1c1ccc(F)cc1` (some centres unmarked), the values for the activity at 50 µM in experiment [2] (setting [5]) and in experiment [3] (setting [6]) were 12.6% and 15.6%, respectively.

For the compound `Cc1ccc(S(=O)(=O)N2C(c3ccc(Cl)c(Cl)c3)CC=C(C(=O)O)[C@@H]2c2cccc(Br)c2)cc1` (some centres unmarked), the activity at 50 µM in experiment [2] stood at 3.2%; in experiment [3], 8.6%.

As to `Cc1ccccc1S(=O)(=O)N1C(c2ccc(Cl)cc2)CC=C(C(=O)O)[C@@H]1c1cccc(Br)c1` (some centres unmarked), the activity at 50 µM in experiment [2] (setting [5]) worked out at 8.8%; in experiment [3] (setting [6]), 10.6%.

In the case of `Cc1ccc(S(=O)(=O)N2[C@H](CC3CCCC3)[C@@H](SCCC(=O)OC(C)(C)C)[C@@H](C(=O)O)[C@@H]2c2ccc(Cl)c(Cl)c2)cc1`, the activity at 50 µM in experiment [2] (setting [5]) worked out at 7.3%; in experiment [3] (setting [6]), 16.1%.
